Source: ChEMBL document CHEMBL1201862, “PubChem BioAssay data set” (2004)
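Following 48 hours of exposure in 96-well plates, responses at five concentrations were used to interpolate endpoints linearly. At the GI50, growth is halved.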 The source made the active and inactive calls. No stated cut-off is given here; in the data, active = GI50 up to about 1.1 µM and inactive = higher.

What was measured:
Test in all cases: NCI anticancer screen, dose series, 48 h
SK-MEL-28 = test system: SK-MEL-28
HOP-62 = test system: HOP-62
CAKI-1 = test system: CAKI-1
NCI-H226 = test system: NCI-H226
UACC-62 = test system: UACC-62
LOX IMVI = test system: LOX IMVI
CCRF-CEM = test system: CCRF-CEM
MDA-MB-231 = test system: MDA-MB-231
TK-10 = test system: TK-10
OVCAR-3 = test system: OVCAR-3
UO-31 = test system: UO-31
HL-60 = test system: HL-60
T47D = test system: T47D
OVCAR-5 = test system: OVCAR-5
DU-145 = test system: DU-145
SF-539 = test system: SF-539
SF-295 = test system: SF-295
SF-268 = test system: SF-268
A498 = test system: A498
RPMI-8226 = test system: RPMI-8226

Row | SMILES | GI50 (SK-MEL-28) | GI50 (HOP-62) | GI50 (CAKI-1) | GI50 (NCI-H226) | GI50 (UACC-62) | GI50 (LOX IMVI) | GI50 (CCRF-CEM) | GI50 (MDA-MB-231) | GI50 (TK-10) | GI50 (OVCAR-3) | GI50 (UO-31) | GI50 (HL-60) | GI50 (T47D) | GI50 (OVCAR-5) | GI50 (DU-145) | GI50 (SF-539) | GI50 (SF-295) | GI50 (SF-268) | GI50 (A498) | GI50 (RPMI-8226)
1 | COc1ccc(C2=C(N)c3ncccc3C2=O)cc1 | > 100 µM (inactive) | > 100 µM (inactive) | > 100 µM (inactive) | > 100 µM (inactive) | 60.8 µM (inactive) | > 100 µM (inactive) | > 100 µM (inactive) | > 100 µM (inactive) | > 10 µM (inactive) | 91.2 µM (inactive) | > 100 µM (inactive) | 93.8 µM (inactive) | > 100 µM (inactive) | > 100 µM (inactive) | > 100 µM (inactive) | > 100 µM (inactive) | > 100 µM (inactive) | > 100 µM (inactive) | > 100 µM (inactive) | > 100 µM (inactive)
2 | COC(=O)C1=C(C)NC(=O)N2[C@@H](CCOCc3ccccc3)CC[C@@H]12 | > 50 µM (inactive) | > 50 µM (inactive) | > 50 µM (inactive) | > 50 µM (inactive) | > 50 µM (inactive) | > 50 µM (inactive) | > 50 µM (inactive) | > 50 µM (inactive) | > 50 µM (inactive) | > 50 µM (inactive) | > 50 µM (inactive) | > 50 µM (inactive) | 12.4 µM (inactive) | > 50 µM (inactive) | > 50 µM (inactive) | > 50 µM (inactive) | > 50 µM (inactive) | > 50 µM (inactive) | > 50 µM (inactive) | > 50 µM (inactive)
3 | Cc1c(-c2ccccc2)c(-c2ccc(OCCN(C)C)cc2)n2ccccc12 | 1.79 µM (inactive) | 13.1 µM (inactive) | 11.2 µM (inactive) | 15.2 µM (inactive) | 1.84 µM (inactive) | 2.23 µM (inactive) | 3.72 µM (inactive) | 10.9 µM (inactive) | 13.2 µM (inactive) | 12 µM (inactive) | 9.48 µM (inactive) | 3.67 µM (inactive) | 10.4 µM (inactive) | 15 µM (inactive) | 13.3 µM (inactive) | 10.5 µM (inactive) | 12.2 µM (inactive) | 14.3 µM (inactive) | 14.8 µM (inactive) | 2.69 µM (inactive)
4 | CC(C)(C)[Si](C)(C)OCC1CCC(n2cnc3c(NC(=O)c4ccccc4)ncnc32)O1 (stereo not given) | 14.3 µM (inactive) | 22 µM (inactive) | 21.4 µM (inactive) | 15.1 µM (inactive) | 14 µM (inactive) | 20.2 µM (inactive) | 22 µM (inactive) | 20.7 µM (inactive) | 20.5 µM (inactive) | 14 µM (inactive) | 1.54 µM (inactive) | 18 µM (inactive) | 26.4 µM (inactive) | 16.7 µM (inactive) | 19.4 µM (inactive) | 18.3 µM (inactive) | 18.2 µM (inactive) | 17.7 µM (inactive) | 21.1 µM (inactive) | 33 µM (inactive)
5 | Cc1c(-c2ccccc2)c(C#N)c2nnn(-c3ccc(Cl)cc3)c(=O)n12 | > 100 µM (inactive) | 7.14 µM (inactive) | 13.3 µM (inactive) | 66.7 µM (inactive) | 0.869 µM (active) | 0.714 µM (active) | 18.3 µM (inactive) | 36.3 µM (inactive) | 77.1 µM (inactive) | 16.4 µM (inactive) | 22.5 µM (inactive) | 4.43 µM (inactive) | 6.14 µM (inactive) | > 100 µM (inactive) | 38.5 µM (inactive) | 20.7 µM (inactive) | 7.06 µM (inactive) | 32.6 µM (inactive) | 68.7 µM (inactive) | 23.5 µM (inactive)
6 | CC(=O)NC1C(OCc2ccccc2)OC(CO)C(O)C1OCC(=O)N1CCCC1C(=O)N[C@@H](CCC(=O)NCCNCCNc1c2ccccc2nc2cccc([N+](=O)[O-])c12)C(N)=O (stereo not given in full) | 6.68 µM (inactive) | 2.54 µM (inactive) | 1.94 µM (inactive) | 5.6 µM (inactive) | 5.24 µM (inactive) | 4.55 µM (inactive) | 1.69 µM (inactive) | 2.5 µM (inactive) | 4.27 µM (inactive) | 5.65 µM (inactive) | 3.75 µM (inactive) | 3.78 µM (inactive) | 5.78 µM (inactive) | 6.81 µM (inactive) | 0.968 µM (active) | 3.27 µM (inactive) | 5.33 µM (inactive) | 2.41 µM (inactive) | 1.04 µM (active) | 0.37 µM (active)
7 | COC1=C(OC)C(=O)C(Sc2ccc3ccccc3c2)=CC1=O | 16.3 µM (inactive) | 13.2 µM (inactive) | 14.7 µM (inactive) | 6.03 µM (inactive) | 7.64 µM (inactive) | 3.54 µM (inactive) | 1.29 µM (inactive) | 11.4 µM (inactive) | 12.2 µM (inactive) | 4.63 µM (inactive) | 6.11 µM (inactive) | 0.716 µM (active) | 5.58 µM (inactive) | 15.6 µM (inactive) | 14.5 µM (inactive) | 13.5 µM (inactive) | 9.42 µM (inactive) | 9.86 µM (inactive) | 14.7 µM (inactive) | 0.678 µM (active)
8 | O=[N+]([O-])c1cccc2nc3ccccc3c(NCCCN3CCCCC3)c12 | 0.0417 µM (active) | 0.0125 µM (active) | 0.0312 µM (active) | 0.0169 µM (active) | 0.0151 µM (active) | 0.0194 µM (active) | 0.024 µM (active) | 0.016 µM (active) | 0.0256 µM (active) | < 0.0126 µM (active) | 0.0237 µM (active) | 0.0252 µM (active) | 0.0179 µM (active) | 0.0208 µM (active) | < 0.01 µM (active) | 0.0163 µM (active) | 0.0146 µM (active) | 0.0191 µM (active) | < 0.0115 µM (active) | < 0.01 µM (active)
9 | C/C(=N\NC(=S)N1CCCCC1)c1nc2cccnc2[nH]1 | 16 µM (inactive) | 9.62 µM (inactive) | 13.2 µM (inactive) | 8.53 µM (inactive) | 13.7 µM (inactive) | 7.83 µM (inactive) | 2.79 µM (inactive) | 3.81 µM (inactive) | 21.3 µM (inactive) | 5.15 µM (inactive) | 4.24 µM (inactive) | 3.35 µM (inactive) | 5.08 µM (inactive) | 9.66 µM (inactive) | 14.7 µM (inactive) | 6.14 µM (inactive) | 8.51 µM (inactive) | 5.51 µM (inactive) | 17.2 µM (inactive) | 4.33 µM (inactive)
10 | CCN(CC)CCN(C)c1ccc(CO)c2c1c(=O)c1ccccc1[s+]2[O-] (stereo not given) | 5.05 µM (inactive) | 4.52 µM (inactive) | 13.2 µM (inactive) | 17.7 µM (inactive) | 7.06 µM (inactive) | 1.78 µM (inactive) | 3.78 µM (inactive) | 2.84 µM (inactive) | 16.9 µM (inactive) | 1.95 µM (inactive) | 16.3 µM (inactive) | 16.8 µM (inactive) | 13.4 µM (inactive) | 11.4 µM (inactive) | 14.6 µM (inactive) | 1.82 µM (inactive) | 13.6 µM (inactive) | 16.5 µM (inactive) | 10.7 µM (inactive) | 2.83 µM (inactive)
11 | O=c1[nH]c(=S)[nH]c(-c2ccccc2)c1Cc1c(O)ccc2ccccc12 [CAMBINOL] | 39.2 µM (inactive) | 64 µM (inactive) | 25.5 µM (inactive) | 29.6 µM (inactive) | 21 µM (inactive) | 36.1 µM (inactive) | 19.9 µM (inactive) | 38.6 µM (inactive) | 29.1 µM (inactive) | 54.3 µM (inactive) | 29.6 µM (inactive) | 20.6 µM (inactive) | 24.4 µM (inactive) | 33.4 µM (inactive) | 41.9 µM (inactive) | 25.6 µM (inactive) | 52 µM (inactive) | 24.7 µM (inactive) | 21.3 µM (inactive) | 21.6 µM (inactive)
12 | COc1cc(-c2oc3c(OC)c(O)cc(O)c3c(=O)c2OC)ccc1O | 12.9 µM (inactive) | 3 µM (inactive) | 3.13 µM (inactive) | 12.9 µM (inactive) | 3.61 µM (inactive) | 4.12 µM (inactive) | 3.12 µM (inactive) | 7.76 µM (inactive) | 12.4 µM (inactive) | 2.68 µM (inactive) | 3.08 µM (inactive) | 3.56 µM (inactive) | 2.38 µM (inactive) | 22.3 µM (inactive) | 7.06 µM (inactive) | 5.47 µM (inactive) | 17.5 µM (inactive) | 3.08 µM (inactive) | 4.2 µM (inactive) | 4.09 µM (inactive)
13 | CCOC(=O)c1cnccc1CC1(C#N)c2ccccc2C=CN1C(=O)c1ccccc1 (stereo not given) | 58.2 µM (inactive) | 53.2 µM (inactive) | 27.2 µM (inactive) | 43.9 µM (inactive) | 23.9 µM (inactive) | 24.1 µM (inactive) | 40.3 µM (inactive) | 25.5 µM (inactive) | 37.5 µM (inactive) | 31.6 µM (inactive) | 27.2 µM (inactive) | 18.5 µM (inactive) | 24.4 µM (inactive) | 80.2 µM (inactive) | 35.6 µM (inactive) | 30.1 µM (inactive) | 53.6 µM (inactive) | 23.6 µM (inactive) | 96.4 µM (inactive) | 4.91 µM (inactive)
14 | Cc1c(S(=O)(=O)N/C(=N\O)Nc2ccc(Cl)c(Cl)c2)sc2ccc(Cl)cc12 | 21.4 µM (inactive) | 18.5 µM (inactive) | 18.5 µM (inactive) | 20.9 µM (inactive) | 17.7 µM (inactive) | 20.7 µM (inactive) | 26.8 µM (inactive) | 23.8 µM (inactive) | 17.7 µM (inactive) | 14.5 µM (inactive) | 20.3 µM (inactive) | 26.7 µM (inactive) | 14.4 µM (inactive) | 21.6 µM (inactive) | 18.8 µM (inactive) | 23 µM (inactive) | 16 µM (inactive) | 24.8 µM (inactive) | 18.1 µM (inactive) | 34.7 µM (inactive)
